Data: patent US20150141274A1, “Methods and Compositions for Activity Dependent Transcriptome Profiling” (The Rockefeller University, priority 2012, published 2015)
No end group written: not given here.

Experiments:
[1] = system: pS6 and c-fos; type: in vivo, mouse; conditions: intraperitoneal: cocaine 30 mg/kg 60 min, kainate 12.5 mg/kg 120 min, haloperidol 2 mg/kg 30 min, olanzapine 20 mg/kg 120 min, clozapine 10 mg/kg 45 min; ghrelin
Method: (§1) Wild-type male C57B6/J mice from Jackson laboratories were maintained on a 8 pm:8 am light-dark schedule and were 9-13 weeks old at the time of sacrifice. All dissections were performed between noon and 2 pm except as noted. For osmotic stimulation experiments, animals were given an intraperitoneal injection of 2M NaCl (350 μL), water was removed from the cage, and mice were sacrificed 120-140 min later. For fasting experiments, animals were transferred to a new cage without food at 5 pm and then sacrificed at 8 am the following morning. Control mice were fed ad libitum and sacrificed at the same time. For ghrelin experiments, animals were given an intraperitoneal injection of ghrelin (66 μg, Tocris), food was removed from the cage, and animals were dissected 70 min later. For scheduled feeding, animals were allowed access to food between noon and 3 pm each day, and then sacrificed between 1:45 and 2 pm after a minimum of 10 days on this schedule.

[2] = biological target: T1, K-opioid receptor (KOR) (Mus musculus, UniProt P33534); assay: Food intake and body weight after treatment with KOR antagonists during scheduled or ad libitum feeding; type: in vivo
T1 construct: An intraperitoneal injection of either a selective KOR antagonist (JDTic) or vehicle was administered to mice; from tissue; host or cells: whole animal (wild-type male C57B6/J mice), i.p. or intracerebroventricular dosing
T1 sequence (P33534 whole entry): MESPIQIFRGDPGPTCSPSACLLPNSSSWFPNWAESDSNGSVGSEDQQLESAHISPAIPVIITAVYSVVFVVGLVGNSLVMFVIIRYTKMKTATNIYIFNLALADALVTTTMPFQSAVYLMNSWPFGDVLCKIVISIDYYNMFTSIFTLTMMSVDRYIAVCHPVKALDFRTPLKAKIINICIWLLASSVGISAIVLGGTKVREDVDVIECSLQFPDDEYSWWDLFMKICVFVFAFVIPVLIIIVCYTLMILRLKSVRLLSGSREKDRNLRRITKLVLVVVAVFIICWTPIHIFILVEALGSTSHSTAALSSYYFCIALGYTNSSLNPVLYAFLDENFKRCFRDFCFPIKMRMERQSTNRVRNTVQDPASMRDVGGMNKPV
Method: as §1
JDTic was either delivered by intraperitoneal injection (10 mg/kg) or was reconstituted in PBS to a concentration of 1 mg/mL and 5 ul was delivered via Hamilton syringe into the lateral ventricle using coordinates: L/M 1.0 mm from Bregma, A/P −0.4 mm from Bregma and 2.5 mm beneath the cortex. Norbinaltorphimine was delivered at the same dose and coordinates as described above.

[3] = system: pS6; assay: Hypothalamic immunostaining for pS6; type: in vivo, mouse
Method: as §1, with “For fasting experiments, animals were transferred to a new cage without food at 5 pm and then sacrificed at 8 am the following morning.” left out
Mice were sacrified at the indicated times by isoflurane anesthesia followed by transcardial perfusion with PBS and then 10% formalin. Brains were dissected, incubated in 10% formalin overnight at 4° C., and 40 μm sections were prepared on a vibratome. Free floating sections were blocked for 1 h at room temperature in buffer E (PBS, 0.1% Triton, 2% goat serum, 3% BSA), and then stained overnight at 4° C. with primary antibodies at the indicated concentrations. For pS6 244 staining, the pS6 240/244 polyclonal antibody (Cell Signaling, #2215) was combined with the 3P peptide (250 nM final concentration). […]
Images were acquired using an LSM510 laser scanning confocal microscope. pS6 was quantified in specific neuronal populations as follows. […] The surfaces corresponding to each labelled cell in the field (e.g. each POMC cell) were reconstructed using Imaris software (Bitplane), and the mean intensity in the pS6 channel within the volume bounded by the surface of each labelled cell was recorded. […] In cases where the absolute number of pS6 positive cells within an anatomic region was desired (e.g. Pdyn neurons in the DMH), the number of pS6 positive and negative cells was counted manually.

[4] = system: hypothalamus; assay: Phosphorylated ribosome profiling (Taqman array) of hypothalamus after salt challenge; type: in vivo, mouse; conditions: 2M NaCl 350 μL intraperitoneal, 120-140 min; 3P peptide
Method: (§2) Mice were sacrificed by cervical dislocation. […] Homogenates were transferred to a microcentrifuge tube and clarified at 2000×g for 10 min at 4° C. […] This solution was mixed and then clarified at 17000×g for 10 min at 4° C. The resulting high-speed supernatant was transferred to a new tube, and 20 μL of a 0.05 mM stock solution of 3P peptide was added. A 20 μL aliquot of this solution was removed, transferred to a new tube containing 350 μL buffer RLT (Qiagen), and stored at −80° C. for purification as input RNA. The remainder was used for immunoprecipitation.
(§3) Immunoprecipitations were allowed to proceed 10 min at 4° C. […] During the third wash the beads were transferred to a new tube and allowed to incubate at RT for 10 min. […] RNA assessed using an Agilent 2100 bioanalyzer.
as §1, with “For fasting experiments, animals were transferred to a new cage without food at 5 pm and then sacrificed at 8 am the following morning.” left out
(§4) Taqman probes were designed and ordered for quantification of each of the 225 genes described in Table 4. Probes were distributed to 96-well plates in duplicate, cDNA was prepared using the Quantitect RT kit (Qiagen), and reactions were run using the Taqman Gene Expression Master Mix (ABI) on an Applied Biosystems 7900HT system. For each experiment (stimulus or control), the abundance of each gene in the input RNA and in the pS6 immunoprecipitated RNA was measured in duplicate. The mean RNA abundance was determined, normalized to an rpL27 probe that was present in every plate, and the ratio (IP/Input) was calculated. The experiment was repeated multiple times for each stimulus or control, these values were averaged, and the differential enrichment was calculated (ratio of (IP/Input) stimulus over control). Note that the differential enrichment was calculated because the neuronal markers that become enriched or depleted specifically in response to the stimulus was of interest. Normalization to the control group accounts for the fact that each neural marker has a somewhat different enrichment at baseline, reflecting the fact that each cell-population has somewhat different level of basal pS6. Follow-up analysis focused in every case on the most highly enriched genes in the experiment, which were validated directly by histology.

[5] = system: hypothalamus; conditions: 2 M NaCl 15 μL/g intraperitoneal, 2 hours; pS6 240/244 antibody without 3P peptide
Method: Magnetic beads were loaded by incubating 150 μL of Protein A Dynabeads (Invitrogen) with 4 μg of pS6 antibody in Buffer A (10 mM HEPES [pH 7.4], 150 mM KCl, 5 mM MgCl2, 1% NP40, 0.05% IgG-free BSA). Loading was allowed to proceed at 4° C. for a minimum of 1 day. Beads were washed three times with Buffer A immediately before use.
Mice were sacrificed by cervical dislocation. The hypothalamus was rapidly dissected in Buffer B on ice (1×HBSS, 4 mM NaHCO3, 2.5 mM HEPES [pH 7.4], 35 mM Glucose, 100 μg/mL cycloheximide). […] Samples were homogenized three times at 250 rpm and nine times at 750 rpm on a variable-speed homogenizer (Glas-Col) at 4° C. Homogenates were transferred to a microcentrifuge tube and clarified for 10 minutes at 4000 rpm at 4° C. The supernatant was then removed and transferred to a new tube on ice. […]
Immunoprecipitations were allowed to proceed for 30-60 min at 4° C. […] RNA quality was quantified using a NanoDrop spectrophotometer and the quality assessed using an Agilent 2100 bioanalyzer. […] For Taqman analysis, cDNA was prepared using the Sensiscript RT kit (Qiagen) and analyzed using an Applied Biosystems 7900HT system. […]
The ratio of the signal intensities for each gene in the IP (immunoprecipitation) and input was calculated for each experiment, these values were averaged across replicates, and all genes were sorted according to their fold-enrichment.

[6] = system: hypothalamus; assay: Phosphorylated ribosome profiling (Taqman array) of hypothalamus after ghrelin injection; type: in vivo, mouse; conditions: ghrelin 66 μg intraperitoneal, 70 min
Method: as §2, §3
Wild-type male C57B6/J mice from Jackson laboratories were maintained on a 8 pm:8 am light-dark schedule and were 9-13 weeks old at the time of sacrifice. All dissections were performed between noon and 2 pm except as noted. […]
as §4, with “Normalization to the control group accounts for the fact that each neural marker has a somewhat different enrichment at baseline, reflecting the fact that each cell-population has somewhat different level of basal pS6. Follow-up analysis focused in every case on the most highly enriched genes in the experiment, which were validated directly by histology.” left out

[7] = biological target: phosphorylated ribosomal protein S6 (mouse), in ribosomes of cell lysates (Mus musculus) (UniProt P62754); assay: immunoprecipitation of ribosomes from MEF lysates, recovered RNA quantified
[8] = biological target: phosphorylated ribosomal protein S6 (mouse), in ribosomes of cell lysates (Mus musculus) (UniProt P62754); assay: immunoprecipitation of ribosomes from MEF lysates, recovered RNA quantified by Bioanalyzer
[9] = ad libitum fed animals, intraperitoneal injection
[10] = scheduled feeding, intraperitoneal injection 10 mg/kg, single dose

O=C(CCCN1CCC(O)(c2ccc(Cl)cc2)CC1)c1ccc(F)cc1 [haloperidol]
co-localization of pS6 and c-fos in brain regions [1]: induce co-localization of pS6 and c-fos

C=C(C)[C@H]1CN[C@H](C(=O)O)[C@H]1CC(=O)O [kainate]
co-localization of pS6 and c-fos in brain regions [1]: induce co-localization of pS6 and c-fos

Oc1ccc2c3c1O[C@H]1c4[nH]c5c(c4C[C@@]4(O)[C@@H](C2)N(CC2CC2)CC[C@]314)C[C@@]1(O)[C@H]2Cc3ccc(O)c4c3[C@@]1(CCN2CC1CC1)[C@H]5O4 [norbinaltorphimine]
increase in food intake ([2]; scheduled feeding, intracerebroventricular injection): more than 50%

[Cl-].[Na+] [salt, NaCl]
pS6 staining in PVN, SON and median eminence of the hypothalamus ([3]; salt challenge, 2M NaCl versus vehicle (PBS), pS6 244 staining): induced an increase in pS6 | enrichment of Cxcl1 in pS6 immunoprecipitates, salt challenged relative to controls [4]: 13 fold | enrichment of Fezf2 in pS6 immunoprecipitates, salt challenged relative to controls [4]: 5.5 fold | enrichment of FosB in pS6 immunoprecipitates, salt challenged relative to controls [4]: 38 fold | enrichment of Nhlh2 in pS6 immunoprecipitates, salt challenged relative to controls [4]: 7.3 fold | enrichment of Sim1 in pS6 immunoprecipitates, salt challenged relative to controls [4]: 4.0 fold | enrichment of corticotropin releasing hormone (Crh) in pS6 immunoprecipitates, salt challenged relative to controls [4]: 10 fold | enrichment of galanin (Gal) in pS6 immunoprecipitates, salt challenged relative to controls [4]: 4.6 fold | enrichment of oxytocin (Oxt) in pS6 immunoprecipitates, salt challenged relative to controls [4]: 14 fold | enrichment of prodynorphin (Pdyn) in pS6 immunoprecipitates, salt challenged relative to controls [4]: 3.4 fold | enrichment of relaxin-1 (Rln1) in pS6 immunoprecipitates, salt challenged relative to controls [4]: 6.1 fold | enrichment of somatostatin (Sst) in pS6 immunoprecipitates, salt challenged relative to controls [4]: 3.1 fold | enrichment of urocortin-3 (Ucn3) in pS6 immunoprecipitates, salt challenged relative to controls [4]: 5.3 fold | enrichment of vasopressin (Avp) in pS6 immunoprecipitates, salt challenged relative to controls [4]: 49 fold | enrichment of Avp in pS6 IPs from salt challenged animals relative to controls, by Taqman [5]: 7.9 fold

JDTic
body weight [2, 9]: no impact | food intake [2, 9]: no impact | body weight relative to the control group [2, 10]: more rapid regain | food intake relative to the control group [2, 10]: increased more rapidly

ghrelin (GSSFLSPEHQRVQQRKESKKPPAKLQPR; not fully specified (residue 3); ends and bridges not checked; UniProt Q9UBU3 24-51, looked up) [the hormone ghrelin (Tocris)]
pS6 levels in the compact part of the DMH ([3]; ghrelin IP injection, 1 h): did not increase | pS6 staining in the Arc ([3]; ghrelin IP injection, 1 h): induced strong pS6 | co-localization of pS6 and c-fos in brain regions [1]: extensive co-localization of c-fos and pS6 | enrichment of AgRP in pS6 immunoprecipitates relative to controls [6]: 27 fold | enrichment of NPY in pS6 immunoprecipitates relative to controls [6]: 21 fold | enrichment of the ghrelin receptor in pS6 immunoprecipitates relative to controls [6]: 7.1 fold

rabbit anti-pS6 240/244 polyclonal antibody (Cell Signaling #2215)
fold more RNA associated with immunoprecipitate, wild-type MEFs against S6S5A cells [7]: 100 fold | fold more RNA isolated in immunoprecipitate, wild-type MEFs against S6^S5A controls [8]: 100 fold
